Laboratory results taken from patent publication US20090176773A1, “Non-Peptidic Inhibitors of AKAP/PKA Interaction” (FORSCHUNGSVERBUND BERLIN E.V., priority 2005, published 2009).

Experiments:
[1] = molecular target: T1, interaction of AKAP18delta with regulatory RIIalpha subunits of PKA in IMCD cells (Rattus norvegicus, UniProt P12368+Q6JP77); test: cAMP agarose precipitation, Western blot and RII overlay in IMCD cells; type: cell-based; conditions: 100 μM, 30 min, FIG. 22
T1 construct: endogenous in cells; host or cells: primary cultured rat IMCD cells
T1 sequence (Q6JP77 whole entry): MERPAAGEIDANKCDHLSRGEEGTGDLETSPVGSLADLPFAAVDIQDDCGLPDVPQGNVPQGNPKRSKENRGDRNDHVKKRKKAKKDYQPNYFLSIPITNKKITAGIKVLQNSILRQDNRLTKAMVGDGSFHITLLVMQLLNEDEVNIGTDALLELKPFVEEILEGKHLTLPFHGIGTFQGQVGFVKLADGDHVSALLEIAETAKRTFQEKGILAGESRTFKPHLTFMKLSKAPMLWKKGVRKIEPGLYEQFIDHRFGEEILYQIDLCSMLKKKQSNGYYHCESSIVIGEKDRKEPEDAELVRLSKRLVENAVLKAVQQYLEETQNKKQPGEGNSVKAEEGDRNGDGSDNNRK
T1 sequence (P12368 whole entry): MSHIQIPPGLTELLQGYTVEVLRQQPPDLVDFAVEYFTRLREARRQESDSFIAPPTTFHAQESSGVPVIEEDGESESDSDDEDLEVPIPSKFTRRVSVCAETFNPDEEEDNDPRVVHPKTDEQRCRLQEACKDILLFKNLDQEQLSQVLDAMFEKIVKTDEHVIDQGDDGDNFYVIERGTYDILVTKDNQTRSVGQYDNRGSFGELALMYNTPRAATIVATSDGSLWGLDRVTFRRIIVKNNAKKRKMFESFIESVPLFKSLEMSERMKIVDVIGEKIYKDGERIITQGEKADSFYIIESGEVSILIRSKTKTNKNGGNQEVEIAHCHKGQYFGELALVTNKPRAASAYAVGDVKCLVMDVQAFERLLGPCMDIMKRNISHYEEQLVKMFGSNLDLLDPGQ
Description: The substance (see Tables A, B and D) was identified by screening a substance library comprising 20,064 compounds, using the ELISA-based test array illustrated in FIG. 17. Primarily cultured IMCD cells either remained untreated (control) or were incubated for 30 min with substance 990 (100 μM) or with cAMP as negative control. Subsequently, the cells were lysed and subjected to cAMP agarose precipitation (Henn et al., JBC 279, 26654, 2004).
A: AKAP18delta was detected in the lysates and in the cAMP agarose precipitates (cAMP agarose) using the AKAP18delta-specific antibody A18delta4 in a Western blot (Henn et al., 2004). cAMP was added to the batch as negative control. As a result, binding of regulatory subunits of PKA to the cAMP agarose was inhibited in a competitive fashion. For this reason, no AKAPs are precipitated and, as a consequence, AKAP18delta cannot be detected in this sample. AKAP18delta produced in a recombinant fashion was used as positive control.
B: To detect the AKAPs in the lysates and cAMP agarose precipitates, an RII overlay was carried out (Henn et al., JBC 279, 26654, 2004). AKAP18delta produced in a recombinant fashion was detected as positive control. AKAP18delta is indicated by arrows in A and B.

[2] = molecular target: T2, interaction of AKAP18delta with regulatory RIIalpha subunits of PKA in myocardial cells (Rattus norvegicus, UniProt P12368+Q6JP77); test: cAMP agarose precipitation, Western blot and RII overlay in neonatal myocardial cells; type: cell-based; conditions: 100 μM, 30 min, FIG. 23
T2 construct: endogenous in cells; host or cells: primary cultured neonatal (rat) myocardial cells
T2 sequence (P12368 2-401): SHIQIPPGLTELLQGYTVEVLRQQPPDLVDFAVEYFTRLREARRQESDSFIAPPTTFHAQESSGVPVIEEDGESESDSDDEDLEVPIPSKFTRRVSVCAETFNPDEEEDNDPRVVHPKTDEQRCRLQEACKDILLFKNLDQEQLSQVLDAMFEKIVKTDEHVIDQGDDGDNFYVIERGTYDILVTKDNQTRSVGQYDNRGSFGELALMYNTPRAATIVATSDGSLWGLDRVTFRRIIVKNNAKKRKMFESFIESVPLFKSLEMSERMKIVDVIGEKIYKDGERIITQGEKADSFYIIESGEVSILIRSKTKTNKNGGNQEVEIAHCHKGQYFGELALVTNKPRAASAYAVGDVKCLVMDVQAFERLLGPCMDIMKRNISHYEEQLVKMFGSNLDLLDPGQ
T2 sequence (Q6JP77 whole entry): as the sequence (Q6JP77 whole entry) above
Description: In contrast, substance 990 has no influence on this interaction. The substances (see Tables A, B and D) were identified by screening a substance library comprising 20,064 compounds, using the ELISA-based test array illustrated in FIG. 17. Primarily cultured neonatal myocardial cells either remained untreated (control) or were incubated for 30 min with the substances 990, 18882 (100 μM each time) or with cAMP as negative control. Subsequently, the cells were lysed and subjected to cAMP agarose precipitation (Henn et al., JBC 279, 26654, 2004). A: AKAP18delta was detected in the lysates and in the cAMP agarose precipitates (cAMP agarose), using the AKAP18delta-specific antibody A18delta4 in a Western blot (Henn et al., JBC 279, 26654, 2004). cAMP was added to the batch as negative control. As a result, binding of regulatory subunits of PKA to the cAMP agarose was inhibited in a competitive fashion. For this reason, no AKAPs are precipitated and, as a consequence, AKAP18delta cannot be detected in this sample. AKAP18delta produced in a recombinant fashion was used as positive control. B: Using Western blotting, regulatory RIIbeta subunits of PKA were detected in the same samples as specified in A. As expected, no RIIbeta is detected in the sample containing cAMP (see A.). […] AKAP18delta produced in a recombinant fashion was detected as positive control.

[3] = system: vasopressin (AVP)-dependent redistribution of the aquaporin-2 (AQP2) water channel in renal principal cells (IMCD cells); test: AVP-induced redistribution of AQP2 in primarily cultured IMCD cells (immunofluorescence, laser scanning microscope); type: cell-based, rat; conditions: FIG. 18 and 21
Description: Initially, collecting duct cells from the inner medulla of rat kidneys (IMCD cells) can be stimulated with AVP in the presence or absence of the substances so as to stimulate AQP2 translocation. Thereafter, immunofluorescence staining can be performed, wherein the cells—following incubation—are fixed and made permeable. Using antibodies coupled to fluorescent dyes, the intracellular localization of AQP2 can subsequently be determined under a fluorescence microscope. In this way it is possible to investigate the influence of the substances on the presumably AKAP18delta-dependent translocation of AQP2.
Inhibition of the vasopressin (AVP)-dependent redistribution of the aquaporin-2 (AQP2) water channel in renal principal cells by the substances specified (see Table B; concentrations of inhibitors in μM). Primarily cultured principal cells from the inner medulla of rat kidneys (IMCD cells) represent a model for the AVP-induced translocation of AQP2. Said redistribution is the molecular basis of AVP-induced water reabsorption in the kidneys. AQP2 was detected by means of a specific antiserum and Cy3-labelled secondary antibodies in untreated cells (control) and in cells treated with AVP or substances, using a laser scanning microscope (Tamma et al., 2003; Henn et al., 2004).
Effect of the low-molecular weight substances 18882, 990 and 990 derivatives SM61 and SM65 on AVP-induced redistribution of AQP2 in IMCD cells (see FIG. 18). The structures and chemical properties of the substances are illustrated in Tables A, B and C (concentrations of inhibitors in μM). AQP2 was detected by means of a specific antiserum and Cy3-labelled secondary antibodies in untreated cells (control) and in cells treated with AVP or substances, using a laser scanning microscope (Tamma et al., 2003; Henn et al., 2004). […] In contrast, the substances 18882 and the 990 derivative SM65 have no influence on AVP-induced AQP2 redistribution at the concentrations used.

[4] = system: L-type Ca^2+ channel currents; test: Patch-clamp measurement of L-type Ca2+ channel currents in neonatal rat myocardial cells; type: cell-based; conditions: isoproterenol 1 μM stimulation, FIG. 24
Text: Another experiment is measurement of the Ca^2+ currents through L-type Ca^2+ channels in primarily cultured myocardial cells from neonatal rats using the patch clamp technique. To this effect, membrane sections of a single cell are fixed by a buffer-filled glass capillary, and a constant voltage is applied across the membrane. A current pulse can trigger a measurable increase of the Ca^2+ current through the voltage-dependent L-type Ca^2+ channels situated in the fixed membrane region.
After stimulating the cells with the non-specific β-adrenoreceptor agonist isoproterenol, an increase of the Ca^2+ channel current is to be expected because receptor activation triggers the AKAP18alpha-dependent signal cascade described in section 3.3. As a result, the L-type Ca^2+ channel is phosphorylated, thereby increasing its open probability. Such measurements can be performed in the presence or absence of the substances, so that the effect on the signaling pathway can be quantified indirectly via the currents being measured.
L-type Ca^2+ channel currents were measured in neonatal rat myocardial cells using the patch-clamp technique. The cells were held at −70 mV and repeatedly depolarized to a test potential of 0 mV (after an increase to −35 mV for 400 ms). […] Currents were measured 400 s after the whole cell configuration had established. […]

Row | Inhibition of AKAP18delta-RIIalpha interaction in IMCD cells [1] | Inhibition of AKAP18delta-RIIalpha interaction in myocardial cells [2] | Compound | Effect on AVP-induced redistribution of AQP2 [3] | Effect on L-type Ca2+ channel currents [4]
1 | inhibits the interaction | no influence | N=C(N)SCc1cccc2ccccc12 [Compound 990] | prevents the AVP-induced redistribution of AQP2 | 
2 |  | inhibits the interaction | Nc1cc(Cc2ccc(O)c(N)c2)ccc1O [Compound 18882] | no influence | Inhibition of L-type Ca^2+ channel currents
